ChEMBL document CHEMBL1131880, “Synthesis and in vitro cytotoxicity of hexacyclic camptothecin analogues” (Bioorg Med Chem Lett, 1999)

Key:
Format in all cases: functional, cell-based
[1] = system: Caov-3 cell line; experiment: In vitro cytotoxicity against human tumor cell line CAOV-3
[2] = system: HEC-1B cell line; experiment: In vitro cytotoxicity against human tumor cell line HEC-1-B
[3] = system: A549; experiment: In vitro cytotoxicity against human tumor cell line A549
[4] = system: KATO III stomach cancer cell line; experiment: In vitro cytotoxicity against human tumor cell line KATO-III
[5] = system: DLD-1; experiment: In vitro cytotoxicity against human tumor cell line DLD-1

Row | Structure (SMILES) | IC50 [1] [nM] | IC50 [2] [nM] | IC50 [3] [nM] | IC50 [4] [nM] | IC50 [5] [nM]
1 | CCCCNCCc1c2c(nc3cc4c(cc13)OCCO4)-c1cc3c(c(=O)n1C2)COC(=O)C3(O)CC (stereo not drawn) | 7120 | 3650 | – | – | –
2 | CCNCCc1c2c(nc3cc4c(cc13)OCO4)-c1cc3c(c(=O)n1C2)COC(=O)C3(O)CC (stereo not drawn) | 33000 | 6060 | 0.094 | 2.9 | –
3 | CCCNCCc1c2c(nc3cc4c(cc13)OCO4)-c1cc3c(c(=O)n1C2)COC(=O)C3(O)CC (stereo not drawn) | 63000 | 2110 | 0.11 | – | 26
4 | CCC1(O)C(=O)OCc2c1cc1n(c2=O)Cc2c-1nc1cc3c(cc1c2CCNC(C)C)OCCO3 (stereo not drawn) | 2320 | 12800 | – | – | –
5 | CCC1(O)C(=O)OCc2c1cc1n(c2=O)Cc2c-1nc1cc3c(cc1c2CCNCC(C)C)OCCO3 (stereo not drawn) | 7120 | 3650 | – | – | –
6 | CCCCNCCc1c2c(nc3cc4c(cc13)OCO4)-c1cc3c(c(=O)n1C2)COC(=O)C3(O)CC (stereo not drawn) | 62000 | 4680 | – | – | –
7 | CCC(C)NCCc1c2c(nc3cc4c(cc13)OCCO4)-c1cc3c(c(=O)n1C2)COC(=O)C3(O)CC (stereo not drawn) | 2000 | 3290 | – | – | –
8 | CCC(C)NCCc1c2c(nc3cc4c(cc13)OCO4)-c1cc3c(c(=O)n1C2)COC(=O)C3(O)CC (stereo not drawn) | 1510 | 14800 | – | – | –
9 | CCC(C)CNCCc1c2c(nc3cc4c(cc13)OCO4)-c1cc3c(c(=O)n1C2)COC(=O)C3(O)CC (stereo not drawn) | 6570 | 2710 | – | – | –
10 | CCCNCCc1c2c(nc3cc4c(cc13)OCCO4)-c1cc3c(c(=O)n1C2)COC(=O)C3(O)CC (stereo not drawn) | > 100000 | > 100000 | – | – | –
11 | CCC1(O)C(=O)OCc2c1cc1n(c2=O)Cc2c-1nc1ccccc1c2CCNC(C)C (stereo not drawn) | – | – | 0.26 | 1.6 | 7.3
12 | CCC1(O)C(=O)OCc2c1cc1n(c2=O)Cc2c-1nc1cc3c(cc1c2CCNCC(C)C)OCO3 (stereo not drawn) | 21900 | 10000 | – | – | –
13 | CCNCCc1c2c(nc3cc4c(cc13)OCCO4)-c1cc3c(c(=O)n1C2)COC(=O)C3(O)CC (stereo not drawn) | – | 190 | 0.5 | – | –
14 | CCC1(O)C(=O)OCc2c1cc1n(c2=O)Cc2c-1nc1cc3c(cc1c2CCNC(C)C)OCO3 (stereo not drawn) | – | 670 | – | 45 | 8.9
15 | CCN(CC)CCNCCc1c2c(nc3cc4c(cc13)OCCO4)-c1cc3c(c(=O)n1C2)COC(=O)C3(O)CC (stereo not drawn) | > 100000 | 12100 | – | – | –
16 | CCC(C)CNCCc1c2c(nc3cc4c(cc13)OCCO4)-c1cc3c(c(=O)n1C2)COC(=O)C3(O)CC (stereo not drawn) | 3500 | 3440 | – | – | –
17 | CC[C@@]1(O)C(=O)OCc2c1cc1n(c2=O)Cc2cc3ccccc3nc2-1 [CAMPTOTHECIN] | 2.9 | 60 | 0.33 | 46 | 14
